In PMC9687610, “Adenosine-Mimicking Derivatives of 3-Aminopyrazine-2-Carboxamide: Towards Inhibitors of Prolyl-tRNA Synthetase with Antimycobacterial Activity” (Biomolecules, 2022):
In brackets after ≈: the same amount, converted by molar mass. Like-named read-outs stand apart in the source and are kept apart here.

How the values were obtained:
[1] = test system: Escherichia coli CCM 3954 (ATCC 25922); assay: Antibacterial microdilution broth (EUCAST), EC; type: cell-based; details: Escherichia coli; read after 24 h; read-out: EC MIC
[2] = test system: Candida albicans CCM 8320 (ATCC 24433); assay: Antifungal microdilution broth (EUCAST), CA; type: cell-based; details: Candida albicans; read after 24 h; read-out: CA MIC
[3] = test system: M. aurum DSM 43999 (ATCC 23366); assay: Microplate Alamar Blue Assay (MABA), M. aurum; type: cell-based; details: Mycolicibacterium aurum; MABA, resazurin after 72 h; read-out: M. aurum MIC
[4] = test system: Staphylococcus epidermidis CCM 4418 (ATCC 12228); assay: Antibacterial microdilution broth (EUCAST), SE; type: cell-based; details: read after 24 h, read-out: SE MIC
[5] = test system: Mycobacterium tuberculosis H37Ra ITM-M006710 (ATCC 9431); assay: Microplate Alamar Blue Assay (MABA), Mtb H37Ra; type: cell-based; details: Mycobacterium tuberculosis, 120 h, pH 6.6, MABA, Middlebrook 7H9 broth pH 6.6, resazurin after 120 h; read-out: Mtb H37Ra MIC
[6] = test system: Pseudomonas aeruginosa CCM 3955 (ATCC 27853); assay: Antibacterial microdilution broth (EUCAST), PA; type: cell-based; details: Pseudomonas aeruginosa; read after 24 h; read-out: PA MIC
[7] = test system: HepG2 human hepatocellular carcinoma cells; assay: In vitro HepG2 cytotoxicity (CellTiter 96); details: for IC50: Homo sapiens, HepG2, 24 h, read-out: HepG2 IC50, 24 h incubation, * limit = highest evaluated concentration (precipitation in medium), ** over the 1000 µM limit
[8] = test system: Staphylococcus aureus subsp. aureus methicillin-resistant (MRSA) CCM 4750 (ATCC 43300); assay: Antibacterial microdilution broth (EUCAST), MRSA; type: cell-based; details: Staphylococcus aureus; read after 24 h; read-out: MRSA MIC
[9] = test system: Staphylococcus aureus subsp. aureus CCM 4223 (ATCC 29213); assay: Antibacterial microdilution broth (EUCAST), SA; type: cell-based; details: Staphylococcus aureus; read after 24 h; read-out: SA MIC
[10] = test system: Mycobacterium smegmatis DSM 43465 (ATCC 607); assay: Microplate Alamar Blue Assay (MABA), M. smegmatis; type: cell-based; details: for MIC: Mycolicibacterium smegmatis, read-out: M. smegmatis MIC
[11] = test system: Acinetobacter baumannii DSM 30007 (ATCC 19606); assay: Antibacterial microdilution broth (EUCAST), ACI; type: cell-based; details: Acinetobacter baumannii; read after 24 h; read-out: ACI MIC
[12] = test system: Candida krusei CCM 8271 (ATCC 6258); assay: Antifungal microdilution broth (EUCAST), CK; type: cell-based; details: Pichia kudriavzevii; read after 24 h; read-out: CK MIC
[13] = test system: Lichtheimia corymbifera CCM 8077; assay: Antifungal microdilution broth (EUCAST), LC; type: cell-based; details: Lichtheimia corymbifera, CCM8077; read after 24 h; read-out: LC MIC
[14] = test system: Aspergillus flavus CCM 8363; assay: Antifungal microdilution broth (EUCAST), AFla; type: cell-based; details: Aspergillus flavus, CCM8363; read after 24 h; read-out: AFla MIC
[15] = test system: Enterococcus faecalis CCM 4224 (ATCC 29212); assay: Antibacterial microdilution broth (EUCAST), EF; type: cell-based; details: Enterococcus faecalis
[16] = test system: Trichophyton interdigitale CCM 8377 (ATCC 9533); assay: Antifungal microdilution broth (EUCAST), TI; type: cell-based; details: Trichophyton interdigitale, 72 h, read-out: TI MIC
[17] = test system: Mycobacterium tuberculosis H37Rv CNCTC My 331/88 (ATCC 27294); assay: MABA microdilution, Mtb H37Rv; type: cell-based; details: for MIC: Mycobacterium tuberculosis, read-out: Mtb H37Rv MIC; for activity on Mtb H37Rv and both MDR strains (in words): virulent strain Mtb H37Rv and MDR isolates IZAK, MATI
[18] = test system: Klebsiella pneumoniae CCM 4415 (ATCC 10031); assay: Antibacterial microdilution broth (EUCAST), KP; details: read after 24 h
[19] = test system: Aspergillus fumigatus ATCC 204305; assay: Antifungal microdilution broth (EUCAST), AF; type: cell-based; details: Aspergillus fumigatus, ATCC204305; read after 24 h; read-out: AF MIC
[20] = test system: Candida tropicalis CCM 8264 (ATCC 750); assay: Antifungal microdilution broth (EUCAST), CT; type: cell-based; details: Candida tropicalis; read after 24 h; read-out: CT MIC
[21] = test system: Candida parapsilosis CCM 8260 (ATCC 22019); assay: Antifungal microdilution broth (EUCAST), CP; type: cell-based; details: Lodderomyces parapsilosis; read after 24 h; read-out: CP MIC
[22] = read after 24 h, read-out: EF MIC

Compound	MIC [1]	MIC [2]	MIC [3]	MIC [4]	MIC [5]	MIC [6]	IC50 [7]	MIC [8]	MIC [9]	MIC ([10]; MABA, resazurin after 48 h)	MIC [11]	MIC [12]	MIC [13]	MIC [14]	MIC [15, 22]	MIC [16]	KP MIC [18]	MIC [19]	MIC [20]	MIC [21]	other results
NC(=O)c1nccnc1NC(=O)c1ccc(F)cc1 [Compound 12]	> 500 µM	> 500 µM	≥ 500 µg/mL	> 500 µM	31.2 µg/mL (≈ 120 µM)	> 500 µM	> 250 µM	> 500 µM	> 500 µM	250 µg/mL (≈ 961 µM)	> 500 µM	> 500 µM	> 500 µM	> 500 µM	> 500 µM	> 500 µM	> 500 µM	> 500 µM	> 500 µM	> 500 µM	MIC [17]: 50 µg/mL (≈ 192 µM); activity on Mtb H37Rv and both MDR strains (in words) [17]: significant activity
NC(=O)c1nccnc1NC(=O)c1ccc(Cl)cc1 [Compound 15]	> 500 µM	> 125 µM	≥ 250 µg/mL	> 500 µM	3.91 µg/mL (≈ 14.1 µM)	> 500 µM	> 100 µM	> 500 µM	> 500 µM	–	> 500 µM	> 125 µM	> 125 µM	> 125 µM	> 500 µM	> 125 µM	> 500 µM	> 125 µM	> 125 µM	> 125 µM	activity against M. smegmatis (in words) [10]: high activity; MIC ([10]; 48 h): 3.91 µg/mL (≈ 14.1 µM); MIC [17]: 6.25 µg/mL (≈ 22.6 µM); activity on Mtb H37Rv and both MDR strains (in words) [17]: significant activity
O=c1[nH]c(-c2ccccc2)nc2nccnc12 [Compound 39]	> 125 µM	> 125 µM	125 µg/mL (≈ 557 µM)	> 125 µM	62.5 µg/mL (≈ 279 µM)	> 125 µM	> 1000 µM	> 125 µM	> 125 µM	≥ 500 µg/mL	> 125 µM	> 125 µM	> 125 µM	> 125 µM	> 125 µM	> 125 µM	> 125 µM	> 125 µM	> 125 µM	> 125 µM	melting point: 283.5 to 284.5 °C
CCCC(=O)Nc1nccnc1C(N)=O [Compound 29]	> 500 µM	> 500 µM	≥ 500 µg/mL	> 500 µM	≥ 500 µg/mL	> 500 µM	> 1000 µM	> 500 µM	> 500 µM	≥ 500 µg/mL	> 500 µM	> 500 µM	> 500 µM	> 500 µM	> 500 µM	> 500 µM	> 500 µM	> 500 µM	> 500 µM	> 500 µM	melting point: 158.7 to 159.5 °C
Cc1ccc(C(=O)Nc2nccnc2C(N)=O)cc1 [Compound 4]	> 500 µM	> 500 µM	≥ 250 µg/mL	> 500 µM	7.81 µg/mL (≈ 30.5 µM)	> 500 µM	> 100 µM	> 500 µM	> 500 µM	≥ 250 µg/mL	> 500 µM	> 500 µM	> 500 µM	> 500 µM	> 500 µM	> 500 µM	> 500 µM	> 500 µM	> 500 µM	> 500 µM	MIC [17]: 6.25 µg/mL (≈ 24.4 µM); activity on Mtb H37Rv and both MDR strains (in words) [17]: significant activity
O=C(O)c1cn(C2CC2)c2cc(N3CCNCC3)c(F)cc2c1=O [CIP, ciprofloxacin, reference compound]	–	–	0.016 µg/mL (≈ 0.0483 µM)	–	0.25 µg/mL (≈ 0.754 µM)	–	–	–	–	0.063 µg/mL (≈ 0.19 µM)	–	–	–	–	–	–	–	–	–	–	MIC ([15]; internal quality control, no visible growth, 24 h, read-out: MIC, visual detection): 1.02 µg/mL; MIC [17]: 0.2 µg/mL (≈ 0.604 µM)
NC(=O)c1nccnc1NC(=O)c1ccc(Br)cc1 [Compound 18]	> 500 µM	> 125 µM	≥ 250 µg/mL	> 500 µM	1.95 µg/mL (≈ 6.07 µM)	> 500 µM	> 25 µM	> 500 µM	> 500 µM	125 µg/mL (≈ 389 µM)	> 500 µM	> 125 µM	> 125 µM	> 125 µM	> 500 µM	> 125 µM	> 500 µM	> 125 µM	> 125 µM	> 125 µM	solubility in the testing medium (in words) ([7]; HepG2 cell culture medium): low solubility; MIC [17]: 6.25 µg/mL (≈ 19.5 µM)
O=c1[nH]c(-c2ccc(F)cc2)nc2nccnc12 [Compound 41]	> 125 µM	> 125 µM	≥ 500 µg/mL	> 125 µM	≥ 500 µg/mL	> 125 µM	> 1000 µM	> 125 µM	> 125 µM	≥ 500 µg/mL	> 125 µM	> 125 µM	> 125 µM	> 125 µM	> 125 µM	> 125 µM	> 125 µM	> 125 µM	> 125 µM	> 125 µM	melting point: 277 to 279.5 °C
